Results: US9279803B2, “Method of identifying patients not suitable for high-dose cyclophosphamide treatment” (The Johns Hopkins University, priority 2006, dated 2016)

Test system: white blood cell count (WBC)
Conditions: preliminary results
Experimental: Additionally, ALDH levels in the target peripheral lymphocytes of high-dose cyclophosphamide treatment may render those cells resistant to cyclophosphamide and can lead to worsened clinical outcome or disease relapse. In a series of multiple sclerosis (MS) patients, blood was analyzed to determine the relative levels of aldehyde dehydrogenease. The banked blood was obtained from MS patients prior to treatment with high-dose cyclophosphamide.

O=P1(N(CCCl)CCCl)NCCCO1 (centres unmarked) [cyclophosphamide]
nadir WBC following high-dose cyclophosphamide treatment (MS patient who did not respond and relapsed, higher ALDH activity in banked blood): 24 | WBC reached following high-dose cyclophosphamide treatment (MS patient who responded, much lower ALDH activity in banked blood): 0
